Experimental data from PMC4696656, “Insights into the Mechanism of Action of Bactericidal Lipophosphonoxins” (PLoS ONE, 2015).
Values after ≈ are worked out from the molar mass of the structure shown. Like-named read-outs stand apart in the source and are kept apart here.

Tests used:
[1] = test system: B. subtilis 168; assay: Selection for resistant strains, stepwise two-fold increased concentration; assay type: cell-based, Bacillus subtilis; conditions: 24 h cultures, two-fold increased concentration each transfer; rifampicin from 0.01 mg/L, DR5026 from 0.5 mg/L
Protocol: A) B. subtilis. […] Then, the growth of the culture was evaluated by OD600nm and an aliquot of the culture was transferred to a new tube with fresh medium and a two-fold increased concentration of the active compound. This template was followed until no growth was detected for DR5026 or until B. subtilis grew at 5 mg/L of rifampicin.

[2] = test system: Bacillus subtilis; assay: MIC, standard microdilution method
[3] = comparable conditions, 1 M salt solution, cited from earlier work
[4] = test system: Mouse macrophages J774A.1; assay: Membrane permeabilization assay (propidium iodide uptake); assay type: cell-based; conditions: LPPOs 10 mg/L, melittin 10 μM
Protocol: Mouse macrophages J774A.1 (ATCC, number TIB-67) were cultured at 37°C in a humidified air/CO2 (19:1) atmosphere in RPMI medium supplemented with 10% (v/v) heat-inactivated fetal bovine serum, penicillin (100 IU/ml), streptomycin (100 mg/L), and amphotericin B (250 μg/L). For fluorescence measurements, cells were mechanically harvested, seeded on glass coverslips in 6-well plates, and grown to 30% confluence (about 2x10^5 cells). Cells grown on coverslips were washed in modified HBSS solution (140 mM NaCl, 5 mM KCl, 2 mM CaCl2, 3 mM MgCl2, 10 mM HEPES-Na, 50 mM glucose, pH 7.4) and promptly mounted into custom-made polypropylene holder which was placed horizontally into a quartz cuvette filled with HBSS containing 10 μM PI. The uptake of PI was observed as fluorescence increase using identical setting as with bacterial cells (see above). The observed area of the coverslip was about 10 mm^2, corresponding to approximately 10^4 cells.

CO[C@H]1/C=C/O[C@@]2(C)Oc3c(C)c(O)c4c(O)c(c(/C=N/N5CCN(C)CC5)c(O)c4c3C2=O)NC(=O)/C(C)=C\C=C\[C@H](C)[C@H](O)[C@@H](C)[C@@H](O)[C@@H](C)[C@H](OC(C)=O)[C@@H]1C [rifampicin, reference compound]
development of resistance [1]: able to obtain cells growing in the presence of 5 mg/L of rifampicin
MIC against wt B. subtilis ([2]; B. subtilis 168, as stated for the resistance selection experiment): 0.06 µg/mL (≈ 0.0729 µM)
MIC ([2]; Bacillus subtilis, read-out: MIC against wt B. subtilis, B. subtilis 168, as stated for the resistance selection experiment): ~0.06 µg/mL (≈ 0.0729 µM)

alamethicin
channel conductance ([3]; no reference given): ca. 600 pS

gramicidin A
channel conductance [3]: ca. 20 pS

melittin
effect on cytoplasmic membrane permeability (PI uptake) [4]: did so
